According to patent publication US11081236B2, “Diagnostic and therapeutic methods for the treatment of breast cancer” (GENENTECH, INC., priority 2018, dated 2021):

How the values were obtained:
Format in all cases: cell-based
HCC1500 = test: RNA sequencing after E2 or DMSO treatment, HCC1500
Method: (§1) To derive a transcriptional signature of ER pathway activity, RNA sequencing was performed on seven breast cancer cell lines following treatment with either DMSO or 1 μM estradiol (E2) for 24 hours. Briefly, RNA libraries for cell lines were made with TRUSEQ® RNA sample preparation kit (ILLUMINA®) according to the manufacturer's protocol. The libraries were sequenced on an ILLUMINA® Hi Seq 2000, using 1-4 lanes per cell line. RNA sequencing (RNA-seq) data were analyzed with HTSeqGenie (R package version 3.14.0) in BioConductor (Huber et al. Nature Methods. 112:115-21, 2015) as follows: reads were trimmed to 75 base pairs (bp), filtered for quality and rRNA/adapter contamination, and aligned to the reference genome GRCh38 using GSNAP (Wu et al. Bioinforma Oxf Engl. 26:873-81, 2010). Gene expression was quantified as Reads per Kilobase of exon model per Million mapped reads normalized by size factor (nRPKM), defined as number of reads aligning to a gene in a sample/(total number of uniquely mapped reads for that sample x gene length x size factor). Genes without gene symbol and genes of uncertain function (LOC and Corf symbols) were excluded.

T47D = test: RNA sequencing after E2 or DMSO treatment, T47D
Method: as §1

EFM19 = test: RNA sequencing after E2 or DMSO treatment, EFM19
Method: as §1

CAMA1 = test: RNA sequencing after E2 or DMSO treatment, CAMA1
Method: as §1

[1] = gene NBEA, 1 μM E2 24 hours vs DMSO
[2] = gene PNPLA7, 1 μM E2 24 hours vs DMSO
[3] = gene PSCA, 1 μM E2 24 hours vs DMSO
[4] = gene SEMASE, 1 μM E2 24 hours vs DMSO
[5] = gene SSPO, 1 μM E2 24 hours vs DMSO
[6] = gene STON1, 1 μM E2 24 hours vs DMSO
[7] = gene TGFB3, 1 μM E2 24 hours vs DMSO
[8] = gene TP53INP1, 1 μM E2 24 hours vs DMSO
[9] = gene TP53INP2, 1 μM E2 24 hours vs DMSO
[10] = gene BAMBI, 1 μM E2 24 hours vs DMSO
[11] = gene BCAS1, 1 μM E2 24 hours vs DMSO
[12] = gene CCNG2, 1 μM E2 24 hours vs DMSO
[13] = gene DDEE4, 1 μM E2 24 hours vs DMSO
[14] = gene EGLN3, 1 μM E2 24 hours vs DMSO
[15] = gene FAM1718, 1 μM E2 24 hours vs DMSO
[16] = gene GRM4, 1 μM E2 24 hours vs DMSO
[17] = gene IL1R1, 1 μM E2 24 hours vs DMSO
[18] = gene LIPH, 1 μM E2 24 hours vs DMSO

Question: `C[C@]12CC[C@@H]3c4ccc(O)cc4CC[C@H]3[C@@H]1CC[C@@H]2O` [Compound E2, estradiol] was tested. Which “Log2 FC E2 vs no E2: NBEA” value (HCC1500; [1]) did it give?
Answer: −1.190

Question: And the “Log2 FC E2 vs no E2: PNPLA7” value (HCC1500; [2])?
Answer: −1.376

Question: What about the “Log2 FC E2 vs no E2: PSCA” value (HCC1500; [3]) of the same compound?
Answer: −1.726

Question: What about the “Log2 FC E2 vs no E2: SEMASE” value (HCC1500; [4]) of the same compound?
Answer: −1.058

Question: What about the “Log2 FC E2 vs no E2: SSPO” value (HCC1500; [5]) of the same compound?
Answer: −1.304

Question: And the “Log2 FC E2 vs no E2: STON1” value (HCC1500; [6])?
Answer: −1.279

Question: What about the “Log2 FC E2 vs no E2: TGFB3” value (HCC1500; [7]) of the same compound?
Answer: −1.214

Question: And the “Log2 FC E2 vs no E2: TP53INP1” value (HCC1500; [8])?
Answer: −1.777

Question: What about the “Log2 FC E2 vs no E2: TP53INP2” value (HCC1500; [9]) of the same compound?
Answer: −1.073

Question: What about the “Log2 FC E2 vs no E2: BAMBI” value (T47D; [10]) of the same compound?
Answer: −1.394

Question: What about the “Log2 FC E2 vs no E2: BCAS1” value (T47D; [11]) of the same compound?
Answer: −2.536

Question: And the “Log2 FC E2 vs no E2: CCNG2” value (T47D; [12])?
Answer: −1.310

Question: And the “Log2 FC E2 vs no E2: DDEE4” value (T47D; [13])?
Answer: −1.878

Question: What about the “Log2 FC E2 vs no E2: EGLN3” value (T47D; [14]) of the same compound?
Answer: −2.052

Question: What about the “Log2 FC E2 vs no E2: FAM1718” value (T47D; [15]) of the same compound?
Answer: −1.158

Question: And the “Log2 FC E2 vs no E2: GRM4” value (T47D; [16])?
Answer: −1.340

Question: And the “Log2 FC E2 vs no E2: IL1R1” value (T47D; [17])?
Answer: −2.433

Question: And the “Log2 FC E2 vs no E2: LIPH” value (T47D; [18])?
Answer: −1.330

Question: What about the “Log2 FC E2 vs no E2: NBEA” value (T47D; [1]) of the same compound?
Answer: −1.368

Question: And the “Log2 FC E2 vs no E2: PNPLA7” value (T47D; [2])?
Answer: −1.211

Question: What about the “Log2 FC E2 vs no E2: PSCA” value (T47D; [3]) of the same compound?
Answer: −1.253

Question: What about the “Log2 FC E2 vs no E2: SEMASE” value (T47D; [4]) of the same compound?
Answer: −0.741

Question: And the “Log2 FC E2 vs no E2: SSPO” value (T47D; [5])?
Answer: −1.181

Question: And the “Log2 FC E2 vs no E2: STON1” value (T47D; [6])?
Answer: −2.304

Question: And the “Log2 FC E2 vs no E2: TGFB3” value (T47D; [7])?
Answer: −1.263

Question: What about the “Log2 FC E2 vs no E2: TP53INP1” value (T47D; [8]) of the same compound?
Answer: −1.363

Question: What about the “Log2 FC E2 vs no E2: TP53INP2” value (T47D; [9]) of the same compound?
Answer: −0.959

Question: What about the “Log2 FC E2 vs no E2: BAMBI” value (EFM19; [10]) of the same compound?
Answer: −1.554

Question: And the “Log2 FC E2 vs no E2: BCAS1” value (EFM19; [11])?
Answer: −2.189

Question: And the “Log2 FC E2 vs no E2: CCNG2” value (EFM19; [12])?
Answer: −1.442

Question: What about the “Log2 FC E2 vs no E2: DDEE4” value (EFM19; [13]) of the same compound?
Answer: −1.101

Question: What about the “Log2 FC E2 vs no E2: EGLN3” value (EFM19; [14]) of the same compound?
Answer: −1.008

Question: What about the “Log2 FC E2 vs no E2: FAM1718” value (EFM19; [15]) of the same compound?
Answer: −1.910

Question: What about the “Log2 FC E2 vs no E2: GRM4” value (EFM19; [16]) of the same compound?
Answer: −1.141

Question: And the “Log2 FC E2 vs no E2: IL1R1” value (EFM19; [17])?
Answer: −2.327

Question: And the “Log2 FC E2 vs no E2: LIPH” value (EFM19; [18])?
Answer: −1.844

Question: And the “Log2 FC E2 vs no E2: NBEA” value (EFM19; [1])?
Answer: −1.105

Question: And the “Log2 FC E2 vs no E2: PNPLA7” value (EFM19; [2])?
Answer: −0.901

Question: And the “Log2 FC E2 vs no E2: PSCA” value (EFM19; [3])?
Answer: −1.593

Question: And the “Log2 FC E2 vs no E2: SEMASE” value (EFM19; [4])?
Answer: −1.100

Question: And the “Log2 FC E2 vs no E2: SSPO” value (EFM19; [5])?
Answer: −0.605

Question: And the “Log2 FC E2 vs no E2: STON1” value (EFM19; [6])?
Answer: −1.500

Question: What about the “Log2 FC E2 vs no E2: TGFB3” value (EFM19; [7]) of the same compound?
Answer: −1.350

Question: And the “Log2 FC E2 vs no E2: TP53INP1” value (EFM19; [8])?
Answer: −1.461

Question: And the “Log2 FC E2 vs no E2: TP53INP2” value (EFM19; [9])?
Answer: −1.373

Question: What about the “Log2 FC E2 vs no E2: BAMBI” value (CAMA1; [10]) of the same compound?
Answer: −1.072

Question: And the “Log2 FC E2 vs no E2: BCAS1” value (CAMA1; [11])?
Answer: −2.311

Question: And the “Log2 FC E2 vs no E2: CCNG2” value (CAMA1; [12])?
Answer: −2.094

Question: What about the “Log2 FC E2 vs no E2: DDEE4” value (CAMA1; [13]) of the same compound?
Answer: −2.737

Question: What about the “Log2 FC E2 vs no E2: EGLN3” value (CAMA1; [14]) of the same compound?
Answer: −1.533

Question: And the “Log2 FC E2 vs no E2: FAM1718” value (CAMA1; [15])?
Answer: −2.271

Question: What about the “Log2 FC E2 vs no E2: GRM4” value (CAMA1; [16]) of the same compound?
Answer: −2.021

Question: What about the “Log2 FC E2 vs no E2: IL1R1” value (CAMA1; [17]) of the same compound?
Answer: −1.686

Question: And the “Log2 FC E2 vs no E2: LIPH” value (CAMA1; [18])?
Answer: −1.583

Question: And the “Log2 FC E2 vs no E2: NBEA” value (CAMA1; [1])?
Answer: −1.550

Question: What about the “Log2 FC E2 vs no E2: PNPLA7” value (CAMA1; [2]) of the same compound?
Answer: −2.068

Question: And the “Log2 FC E2 vs no E2: PSCA” value (CAMA1; [3])?
Answer: −3.517

Question: And the “Log2 FC E2 vs no E2: SEMASE” value (CAMA1; [4])?
Answer: −1.374

Question: And the “Log2 FC E2 vs no E2: SSPO” value (CAMA1; [5])?
Answer: −2.298

Question: What about the “Log2 FC E2 vs no E2: STON1” value (CAMA1; [6]) of the same compound?
Answer: −2.609

Question: What about the “Log2 FC E2 vs no E2: TGFB3” value (CAMA1; [7]) of the same compound?
Answer: −1.444

Question: And the “Log2 FC E2 vs no E2: TP53INP1” value (CAMA1; [8])?
Answer: −3.177

Question: What about the “Log2 FC E2 vs no E2: TP53INP2” value (CAMA1; [9]) of the same compound?
Answer: −2.068
